# Test results as given in patent US20250234864A1 (priority 2022, published 2025).
# “And” between values parts separate entries of the source, which are not always exact repeats. Equal values may be shown once. Read-outs that look alike come from different tables or passages of the source.
# Columns and labels:
# Pyricularia oryzae [1] = assay: whole plant or invertebrate; type: in vivo; conditions: rice seedlings, spray before inoculation; for pest or weed control at 0.01 ppm: read-out: Control Efficacy, spray concentration 0.01 ppm; for pest or weed control at 1 ppm: read-out: Control Efficacy, spray concentration 1 ppm; for pest or weed control at 25 ppm: read-out: Control Efficacy, spray concentration 25 ppm; for pest or weed control at 100 ppm: read-out: Control Efficacy, spray concentration 100 ppm
# Pyricularia oryzae [2] = type: in vivo; conditions: spray after lesions on rice seedlings, two natural infections
compound,measurement,setting,value
CC(C1CC1)C(O)(Cn1cncn1)c1ccc(Cl)cc1 (centres unmarked) [Ciproconazole],Control Efficacy,Pyricularia oryzae [1]; spray concentration 10 ppm,11
CC1COC(Cn2cncn2)(c2ccc(Oc3ccc(Cl)cc3)cc2Cl)O1 (centres unmarked) [Diphenoconazole],Control Efficacy,Pyricularia oryzae [1]; spray concentration 50 ppm,62
same,Control Efficacy,Pyricularia oryzae [1]; spray concentration 100 ppm,86
CO/N=C(/C1=NOCCO1)c1ccccc1Oc1ncnc(Oc2ccccc2Cl)c1F [Fluoxastrobin],pest or weed control at 0.01 ppm,Pyricularia oryzae [1]; Pyricularia oryzae,22%
same,pest or weed control at 1 ppm,Pyricularia oryzae [1]; Pyricularia oryzae,93%
CCCCC(O)(Cn1cncn1)c1ccc(Cl)cc1Cl (centres unmarked) [Hexaconazole],pest or weed control at 25 ppm,Pyricularia oryzae [1]; Pyricularia oryzae,55%
same,pest or weed control at 100 ppm,Pyricularia oryzae [1]; Pyricularia oryzae,86%
Cc1nc2c(F)c(F)ccc2cc1Oc1cccc(F)c1C(C)(C)O [Ipflufenoquin],Control Efficacy,Pyricularia oryzae [1]; spray concentration 0.01 ppm,0
same,Control Efficacy,Pyricularia oryzae [1]; spray concentration 0.1 ppm,76
CNC(=O)C(OC)c1ccccc1COc1cc(C)ccc1C (centres unmarked) [Mandestrobin],Control Efficacy,Pyricularia oryzae [1]; spray concentration 0.1 ppm,0
CC(O)(Cn1cncn1)c1ccc(Oc2ccc(Cl)cc2)cc1C(F)(F)F (centres unmarked) [Mefentrifluconazole],Control Efficacy,Pyricularia oryzae [1]; spray concentration 25 ppm,35
same,Control Efficacy,Pyricularia oryzae [1]; spray concentration 100 ppm,44
Cc1nn(C)c(F)c1C(=O)Nc1ccccc1C(C)CC(C)C (centres unmarked) [Penflufen],Control Efficacy,Pyricularia oryzae [1]; spray concentration 1 ppm,11
CO/C=C(/C(=O)OC)c1ccccc1COc1cccc(C(F)(F)F)n1 [Picoxystrobin],Control Efficacy,Pyricularia oryzae [1]; spray concentration 0.01 ppm,22
same,Control Efficacy,Pyricularia oryzae [1]; spray concentration 0.1 ppm,68
CCCC1COC(Cn2cncn2)(c2ccc(Cl)cc2Cl)O1 (centres unmarked) [Propiconazole],Control Efficacy,Pyricularia oryzae [2]; spray concentration 52 ppm,55
same,pest or weed control at 100 ppm,Pyricularia oryzae [1]; Pyricularia oryzae,72%
OC(Cc1ccccc1Cl)(Cn1nc[nH]c1=S)C1(Cl)CC1 (centres unmarked) [Prothioconazole],pest or weed control at 1 ppm,Pyricularia oryzae [1]; Pyricularia oryzae,39%
same,pest or weed control at 25 ppm,Pyricularia oryzae [1]; Pyricularia oryzae,82%
same,pest or weed control at 100 ppm,Pyricularia oryzae [1]; Pyricularia oryzae,95%
COC(=O)N(OC)c1ccccc1COc1ccn(-c2ccc(Cl)cc2)n1 [Pyraclostrobin],pest or weed control at 0.01 ppm,Pyricularia oryzae [1]; Pyricularia oryzae,44%
same,pest or weed control at 0.1 ppm,"Pyricularia oryzae [1]; Pyricularia oryzae, read-out: Control Efficacy, spray concentration 0.1 ppm",64%
O=C(Nc1ccccc1-c1ccc(F)c(F)c1)c1nccnc1C(F)(F)F [Pyraziflumid],Control Efficacy,Pyricularia oryzae [1]; spray concentration 10 ppm,0
same,Control Efficacy,Pyricularia oryzae [1]; spray concentration 100 ppm,56
O=C1CCc2cccc3c2N1CC3 [Pyroquilon],pest or weed control at 100 ppm,Pyricularia oryzae [1]; Pyricularia oryzae,22%
CC(C)(C)C(O)(CCc1ccc(Cl)cc1)Cn1cncn1 (centres unmarked) [Tebuconazole],Control Efficacy,Pyricularia oryzae [2]; spray concentration 52 ppm,63
same,pest or weed control at 10 ppm,"Pyricularia oryzae [1]; Pyricularia oryzae, read-out: Control Efficacy, spray concentration 10 ppm",58%
CC(=O)Oc1c(C)c(C)nc2c(F)cc(C(C)(C)C)cc12 [Tebufloquin],Control Efficacy,"Pyricularia oryzae [2]; spray concentration 83 ppm, lesions on uppermost unfolded leaf of 50 seedlings",80 and 81
same,Control Efficacy,Pyricularia oryzae [1]; spray concentration 10 ppm,84 and 76 and 86 and 51 and 48
same,Control Efficacy,Pyricularia oryzae [1]; spray concentration 20 ppm,97 and 90 and 70
CON=C(C(=O)OC)c1ccccc1CON=C(C)c1cccc(C(F)(F)F)c1 [Trifloxystrobin],pest or weed control at 0.01 ppm,Pyricularia oryzae [1]; Pyricularia oryzae,75%
Inpyrfluxam,Control Efficacy,Pyricularia oryzae [1]; spray concentration 100 ppm,74
